Assays:
[1] = molecular target: T1, CXCR-4 transfected U87 cell line (U87.CXCR4) (Homo sapiens, UniProt P61073); experiment: Intracellular CXCL-12-induced calcium mobilization assay (FLIPR); format: cell-based; conditions: U87.CXCR4 cells; CXCL-12 25-50 ng/mL; compound added 15 min before; read-out: IC50 CXCL-12 Ca^2+ flux U87.CXCR4+
T1 construct: expressed in transfected cells; host or cells: U87 (U87.CXCR4)
In short: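 CXCL-12 (25-50 ng/mL) was the stimulus, and the intracellular calcium rise was tracked kinetically by FLIPR at 37 °C. Cells were U87.CXCR4 transfectants pre-loaded 45 min at 37 °C with 4 μM (final) Fluo-2 AM in HEPES-buffered HBSS with 0.2% BSA, pH 7.4.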

[2] = molecular target: T2, Jurkat cells expressing CXCR4 (Homo sapiens, UniProt P61073); experiment: Chemokine (CXCL12-AF647) binding inhibition assay; conditions: CXCL12-AF647 25 ng/mL, read-out: IC50 CXCL-12 binding Jurkat
T2 construct: endogenous in cells; host or cells: Jurkat
T2 sequence (P61073 whole entry): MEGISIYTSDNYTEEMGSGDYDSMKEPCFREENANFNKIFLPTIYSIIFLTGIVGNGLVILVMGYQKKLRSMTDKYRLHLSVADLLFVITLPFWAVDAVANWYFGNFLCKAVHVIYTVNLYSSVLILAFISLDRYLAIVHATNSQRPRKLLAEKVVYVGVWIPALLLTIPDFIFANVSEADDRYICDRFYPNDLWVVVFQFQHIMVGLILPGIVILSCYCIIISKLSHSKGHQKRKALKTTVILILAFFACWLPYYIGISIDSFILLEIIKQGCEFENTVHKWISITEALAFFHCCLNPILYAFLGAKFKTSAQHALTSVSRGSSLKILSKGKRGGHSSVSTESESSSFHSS
In short: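 Cells in HBSS, 20 mM HEPES, 0.2% BSA, pH 7.4, preincubated 15 min at room temperature with compound, then 25 ng/mL CXCL12-AF647 for 30 min. After washing and paraformaldehyde fixation, bound ligand read by flow cytometry; percent inhibition calculated from MFI relative to unlabeled and ligand-only controls.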

[3] = in vitro; conditions: human, Caco-2, pH 7.4
In short: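 Bidirectional permeability across Caco-2 monolayers in HBSS (pH 7.4) at a test concentration of 10 μM, incubated 0 and 90 min at 37° C (n=2). Monolayer integrity was assessed by TEER and Lucifer yellow. Papp was derived from LC-MS/MS-measured concentrations.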

T1 sequence (P61073 whole entry): as above

| SMILES | IC50 [1] | IC50 [2] | Papp A→B at 90 min, 10 μM [3] | Papp B→A at 90 min, 10 μM [3] | efflux ratio at 90 min, 10 μM [3] |
| --- | --- | --- | --- | --- | --- |
| Cc1ccnnc1[C@@H]1CCC[C@H](c2nc3cccc(N4CCN(C)CC4)c3[nH]2)N1C [I-84] | ≥ 1000 nM | 100 to 1000 nM | 0.1 to 10 ×10⁻⁶ cm/s | 10 to 30 ×10⁻⁶ cm/s | 10 to 30 |
| CN1CCN(c2cccc3nc([C@H]4CCC[C@@H](c5nccc6occc56)N4C)[nH]c23)CC1 [I-92] | 100 to 1000 nM | 0.01 to 100 nM | 10 to 30 ×10⁻⁶ cm/s | 10 to 30 ×10⁻⁶ cm/s | 0.1 to 10 |
| CN1CCN(c2cccc3nc([C@H]4CCC[C@@H](c5ncn6ccccc56)N4C)[nH]c23)CC1 [I-93] | ≥ 1000 nM | 100 to 1000 nM | 10 to 30 ×10⁻⁶ cm/s | 10 to 30 ×10⁻⁶ cm/s | 0.1 to 10 |
| CN(C)C1CCN(c2cccc3nc([C@H]4CCC[C@@H](c5ncccc5Cl)N4C)[nH]c23)CC1 [I-97] | ≥ 1000 nM | 0.01 to 100 nM | 10 to 30 ×10⁻⁶ cm/s | 10 to 30 ×10⁻⁶ cm/s | 0.1 to 10 |
| Cc1cccnc1[C@@H]1CCC[C@H](c2nc3cccc(N4CC5CCC(C4)N5)c3[nH]2)N1C [I-98] | 0.01 to 100 nM | 0.01 to 100 nM | 0.1 to 10 ×10⁻⁶ cm/s | 10 to 30 ×10⁻⁶ cm/s | > 30 |
| Cc1cccnc1[C@@H]1CCC[C@H](c2nc3cccc(N4C5CCC4CNC5)c3[nH]2)N1C [I-99] | 0.01 to 100 nM | 0.01 to 100 nM | 0.1 to 10 ×10⁻⁶ cm/s | > 30 ×10⁻⁶ cm/s | > 30 |
| CO[C@@H]1C[C@H](c2nc3cccc(N4CCN(C)CC4)c3[nH]2)N(C)[C@H](c2ncccc2C)C1 [I-102] | 100 to 1000 nM | 0.01 to 100 nM | 0.1 to 10 ×10⁻⁶ cm/s | 10 to 30 ×10⁻⁶ cm/s | 0.1 to 10 |
| Cc1nccnc1[C@@H]1CCC[C@H](c2nc3cccc(N4CCN(C)CC4)c3[nH]2)N1C [I-105] | ≥ 1000 nM | 100 to 1000 nM | 0.1 to 10 ×10⁻⁶ cm/s | 10 to 30 ×10⁻⁶ cm/s | 0.1 to 10 |
| Cc1cccnc1[C@@H]1CCC[C@H](c2nc3cccc(N4CC5CC(C4)N5C)c3[nH]2)N1C [I-109] | 100 to 1000 nM | 0.01 to 100 nM | 0.1 to 10 ×10⁻⁶ cm/s | 10 to 30 ×10⁻⁶ cm/s | 0.1 to 10 |
| Cc1cccnc1[C@@H]1CCC[C@H](c2nc3cccc(N4CC5CC4CN5C)c3[nH]2)N1C (stereo partly shown) [I-110] | 100 to 1000 nM | 0.01 to 100 nM | 0.1 to 10 ×10⁻⁶ cm/s | 10 to 30 ×10⁻⁶ cm/s | 0.1 to 10 |
| Cc1ccnc([C@@H]2CCC[C@H](c3nc4cccc(N5CCN(C)CC5)c4[nH]3)N2C)c1C [I-115] | 100 to 1000 nM | 0.01 to 100 nM | 0.1 to 10 ×10⁻⁶ cm/s | 0.1 to 10 ×10⁻⁶ cm/s | 0.1 to 10 |
| Cc1ccnc([C@@H]2CCC[C@H](c3nc4cccc(N5CCN(C)CC5)c4[nH]3)N2C)c1Cl [I-116] | 100 to 1000 nM | 0.01 to 100 nM | 10 to 30 ×10⁻⁶ cm/s | 10 to 30 ×10⁻⁶ cm/s | 0.1 to 10 |
| Cc1cccnc1[C@@H]1CCC[C@H](c2nc3cccc(N4CC5CCC(C4)N5C)c3[nH]2)N1 [I-118] | 0.01 to 100 nM | 0.01 to 100 nM | 0.1 to 10 ×10⁻⁶ cm/s | > 30 ×10⁻⁶ cm/s | 10 to 30 |
| CN1C2CCC1CN(c1cccc3nc([C@H]4CCC[C@@H](c5ncccc5Cl)N4)[nH]c13)C2 [I-119] | 100 to 1000 nM | 0.01 to 100 nM | 10 to 30 ×10⁻⁶ cm/s | 10 to 30 ×10⁻⁶ cm/s | 0.1 to 10 |
| CN1CC2CCC(C1)N2c1cccc2nc([C@H]3CCC[C@@H](c4ncccc4Cl)N3)[nH]c12 [I-121] | 0.01 to 100 nM | 0.01 to 100 nM | 10 to 30 ×10⁻⁶ cm/s | 10 to 30 ×10⁻⁶ cm/s | 0.1 to 10 |
| Cc1cccnc1[C@@H]1CCC[C@H](c2nc3cccc(N4CCNC5(CC5)C4)c3[nH]2)N1C [I-129] | 100 to 1000 nM | 0.01 to 100 nM | 10 to 30 ×10⁻⁶ cm/s | 10 to 30 ×10⁻⁶ cm/s | 0.1 to 10 |
| Cc1cccnc1[C@@H]1CCC[C@H](c2nc3ccccc3n2C2CCN(C)CC2)N1 [I-131] | 100 to 1000 nM | 0.01 to 100 nM | 0.1 to 10 ×10⁻⁶ cm/s | 10 to 30 ×10⁻⁶ cm/s | 0.1 to 10 |
| CN1CCN(c2cccc3nc([C@H]4CCC[C@@H](c5ncccc5Cl)N4)[nH]c23)CC12CC2 [I-133] | ≥ 1000 nM | 0.01 to 100 nM | 10 to 30 ×10⁻⁶ cm/s | 10 to 30 ×10⁻⁶ cm/s | 0.1 to 10 |
| Cc1cccnc1[C@@H]1CCC[C@H](c2nc3cccc(N4CCNCC4)c3[nH]2)N1C [I-136] | 0.01 to 100 nM | 0.01 to 100 nM | 0.1 to 10 ×10⁻⁶ cm/s | 10 to 30 ×10⁻⁶ cm/s | 10 to 30 |
| Cc1c(Cl)ccnc1[C@@H]1CCC[C@H](c2nc3cccc(N4CCN(C)CC4)c3[nH]2)N1 [I-140] | 0.01 to 100 nM | 0.01 to 100 nM | 0.1 to 10 ×10⁻⁶ cm/s | 10 to 30 ×10⁻⁶ cm/s | 0.1 to 10 |
| Cc1cccnc1[C@@H]1CCC[C@H](c2nc3c(N4CCN(C)CC4)cccc3n2C)N1 [I-141] | ≥ 1000 nM | ≥ 1000 nM | 10 to 30 ×10⁻⁶ cm/s | 10 to 30 ×10⁻⁶ cm/s | 0.1 to 10 |
| Cc1cc(F)cnc1[C@@H]1CCC[C@H](c2nc3cccc(N4CCN(C)CC4)c3[nH]2)N1 [I-142] | 0.01 to 100 nM | 0.01 to 100 nM | 0.1 to 10 ×10⁻⁶ cm/s | 10 to 30 ×10⁻⁶ cm/s | 0.1 to 10 |
| Clc1cccnc1[C@@H]1CCC[C@H](c2nc3cccc(N4CCN(C5CC5)CC4)c3[nH]2)N1 [I-143] | 0.01 to 100 nM | 0.01 to 100 nM | 10 to 30 ×10⁻⁶ cm/s | 10 to 30 ×10⁻⁶ cm/s | 0.1 to 10 |

Continued, values first:

| IC50 [1] | IC50 [2] | Papp A→B at 90 min, 10 μM [3] | Papp B→A at 90 min, 10 μM [3] | efflux ratio at 90 min, 10 μM [3] | SMILES |
| --- | --- | --- | --- | --- | --- |
| 0.01 to 100 nM | 0.01 to 100 nM | 10 to 30 ×10⁻⁶ cm/s | 0.1 to 10 ×10⁻⁶ cm/s | 0.1 to 10 | Cc1cccnc1[C@@H]1CCC[C@H](c2nc3cccc(N4CCN(C(C)C)CC4)c3[nH]2)N1C [I-75] |
| 0.01 to 100 nM | 0.01 to 100 nM | 0.1 to 10 ×10⁻⁶ cm/s | 0.1 to 10 ×10⁻⁶ cm/s | 0.1 to 10 | CN1CCN(c2cccc3nc([C@H]4CCC[C@@H](c5nccc6ccccc56)N4C)[nH]c23)CC1 [I-88] |
| 0.01 to 100 nM | 0.01 to 100 nM | 0.1 to 10 ×10⁻⁶ cm/s | 10 to 30 ×10⁻⁶ cm/s | > 30 | Cc1cccnc1[C@@H]1C[C@H](O)C[C@H](c2nc3cccc(N4CCN(C)CC4)c3[nH]2)N1C [I-100] |
| 0.01 to 100 nM | 0.01 to 100 nM | 0.1 to 10 ×10⁻⁶ cm/s | 10 to 30 ×10⁻⁶ cm/s | > 30 | Cc1cccnc1[C@@H]1C[C@@H](O)C[C@H](c2nc3cccc(N4CCN(C)CC4)c3[nH]2)N1C [I-101] |
| 0.01 to 100 nM | 0.01 to 100 nM | 10 to 30 ×10⁻⁶ cm/s | 10 to 30 ×10⁻⁶ cm/s | – | [2H]C([2H])([2H])N1CCN(c2cccc3nc([C@H]4CCC[C@@H](c5ncccc5C)N4C)[nH]c23)CC1 [I-111] |
| 0.01 to 100 nM | 0.01 to 100 nM | 10 to 30 ×10⁻⁶ cm/s | 10 to 30 ×10⁻⁶ cm/s | – | [2H]C([2H])([2H])N1[C@@H](c2nc3cccc(N4CCN(C)CC4)c3[nH]2)CCC[C@H]1c1ncccc1C [I-112] |
| 0.01 to 100 nM | 0.01 to 100 nM | 10 to 30 ×10⁻⁶ cm/s | 10 to 30 ×10⁻⁶ cm/s | 0.1 to 10 | CCc1cccnc1[C@@H]1CCC[C@H](c2nc3cccc(N4CCN(C)CC4)c3[nH]2)N1C [I-114] |
| 0.01 to 100 nM | 0.01 to 100 nM | 0.1 to 10 ×10⁻⁶ cm/s | 10 to 30 ×10⁻⁶ cm/s | 0.1 to 10 | Cc1cccnc1[C@@H]1CCC[C@H](c2nc3cccc(N4CCN(C)CC4)c3n2C)N1 [I-123] |
| 0.01 to 100 nM | 0.01 to 100 nM | 10 to 30 ×10⁻⁶ cm/s | 10 to 30 ×10⁻⁶ cm/s | 0.1 to 10 | Cc1cccnc1[C@@H]1CCC[C@H](c2nc3cccc(N4CCN(C5CC5)CC4)c3[nH]2)N1 [I-125] |
| 0.01 to 100 nM | 0.01 to 100 nM | 0.1 to 10 ×10⁻⁶ cm/s | 10 to 30 ×10⁻⁶ cm/s | 0.1 to 10 | Cc1cccnc1[C@@H]1CCC[C@H](c2nc3cccc(N4CCN5CCCC5C4)c3[nH]2)N1 (stereo partly shown) [I-126] |
| 0.01 to 100 nM | 0.01 to 100 nM | 10 to 30 ×10⁻⁶ cm/s | 10 to 30 ×10⁻⁶ cm/s | 0.1 to 10 | Cc1cccnc1[C@@H]1CCC[C@H](c2nc3ccccc3n2C2CCN(C)CC2)N1C [I-130] |
| 0.01 to 100 nM | 0.01 to 100 nM | 10 to 30 ×10⁻⁶ cm/s | 10 to 30 ×10⁻⁶ cm/s | 0.1 to 10 | CN1CCC(n2c([C@H]3CCC[C@@H](c4ncccc4Cl)N3C)nc3ccccc32)CC1 [I-134] |
| 0.01 to 100 nM | 0.01 to 100 nM | 10 to 30 ×10⁻⁶ cm/s | 10 to 30 ×10⁻⁶ cm/s | 0.1 to 10 | CN1CCC(n2c([C@H]3CCC[C@@H](c4ncccc4Cl)N3)nc3ccccc32)CC1 [I-135] |

Source: patent US10988465B2, “CXCR4 inhibitors and uses thereof” (X4 Pharmaceuticals, Inc., priority 2016, dated 2021)
